Source: patent publication US10758534B2 (Vertex Pharmaceuticals Incorporated, priority 2014, dated 2020)

Biological target: T1, F508del (Homo sapiens, UniProt P13569, DEL508-508)
T1 construct: expressed in transfected cells
Test: Protocol 2: FRET membrane potential optical assay (VIPR), identification of correction compounds
Type: cell-based
Details: F508del CFTR modulator activity; compounds of Table 1; read-out: EC30
Summary of the method: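 FRET read-out (CC2-DMPE donor, DiSBAC2(3) voltage-sensitive acceptor) of membrane depolarization on VIPR II. Corrector candidates incubated 16 hrs at 37° C. with NIH3T3 cells expressing F508del; temperature correction at 27° C. as positive control; stimulation by 10 μM forskolin, 20 μM genistein, chloride-free gluconate bath.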

T1 sequence (P13569 with tags, fused parts or gaps DEL508-508): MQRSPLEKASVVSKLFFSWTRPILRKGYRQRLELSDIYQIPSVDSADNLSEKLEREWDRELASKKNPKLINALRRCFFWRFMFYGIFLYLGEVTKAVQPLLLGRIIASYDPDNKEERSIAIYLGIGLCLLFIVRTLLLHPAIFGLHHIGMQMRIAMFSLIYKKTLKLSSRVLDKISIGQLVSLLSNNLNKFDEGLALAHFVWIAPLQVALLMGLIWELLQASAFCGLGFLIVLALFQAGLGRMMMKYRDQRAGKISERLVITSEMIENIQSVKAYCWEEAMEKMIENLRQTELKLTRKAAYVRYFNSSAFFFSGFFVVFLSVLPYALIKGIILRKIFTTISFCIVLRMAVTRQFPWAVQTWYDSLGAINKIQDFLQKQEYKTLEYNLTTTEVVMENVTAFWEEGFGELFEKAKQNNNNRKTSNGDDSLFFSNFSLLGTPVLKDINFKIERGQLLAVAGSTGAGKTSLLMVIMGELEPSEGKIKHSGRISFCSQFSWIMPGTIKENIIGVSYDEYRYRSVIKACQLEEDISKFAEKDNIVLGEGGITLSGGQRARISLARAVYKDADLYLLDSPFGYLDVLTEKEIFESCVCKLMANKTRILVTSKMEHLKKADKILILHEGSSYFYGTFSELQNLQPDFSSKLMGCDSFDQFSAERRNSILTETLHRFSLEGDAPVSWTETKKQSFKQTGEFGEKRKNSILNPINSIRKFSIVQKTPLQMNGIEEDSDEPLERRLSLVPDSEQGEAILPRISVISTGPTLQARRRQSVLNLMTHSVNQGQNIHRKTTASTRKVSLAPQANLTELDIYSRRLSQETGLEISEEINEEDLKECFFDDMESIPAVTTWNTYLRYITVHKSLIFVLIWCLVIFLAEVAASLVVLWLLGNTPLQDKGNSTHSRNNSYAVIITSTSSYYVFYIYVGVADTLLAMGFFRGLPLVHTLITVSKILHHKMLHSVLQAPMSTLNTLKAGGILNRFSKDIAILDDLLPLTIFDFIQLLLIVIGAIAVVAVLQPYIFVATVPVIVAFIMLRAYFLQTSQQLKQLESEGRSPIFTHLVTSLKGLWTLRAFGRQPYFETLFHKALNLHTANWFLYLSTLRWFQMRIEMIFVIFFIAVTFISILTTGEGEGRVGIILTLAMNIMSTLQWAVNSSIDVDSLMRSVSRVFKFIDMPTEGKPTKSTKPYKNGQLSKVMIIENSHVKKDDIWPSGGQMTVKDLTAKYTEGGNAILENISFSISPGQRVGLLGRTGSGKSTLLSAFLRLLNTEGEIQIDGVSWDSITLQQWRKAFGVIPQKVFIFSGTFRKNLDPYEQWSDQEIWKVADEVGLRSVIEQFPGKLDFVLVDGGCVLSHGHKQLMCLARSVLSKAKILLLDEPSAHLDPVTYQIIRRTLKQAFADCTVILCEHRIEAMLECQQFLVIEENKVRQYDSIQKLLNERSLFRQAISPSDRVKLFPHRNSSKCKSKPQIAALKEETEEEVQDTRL

Structure (SMILES)	EC30
CC1CN(c2ncccc2C(=O)NS(=O)(=O)c2cccc(OCc3ccc(C(C)(C)C)cc3)n2)C(C)(C)C1 (centres unmarked) [Compound 2286, N—[[6-[(4-tert-butylphenyl)methoxy]-2-pyridyl]sulfonyl]-2-(2,2,4-trimethylpyrrolidin-1-yl)pyridine-3-carboxamide]	< 3 µM
Cc1cccc(-c2ccc(C(=O)NS(=O)(=O)c3cccc(N)n3)c(N3C[C@@H](C)CC3(C)C)n2)c1C [Compound 2287, N-[(6-amino-2-pyridyl)sulfonyl]-6-(2,3-dimethylphenyl)-2-[(4S)-2,2,4-trimethylpyrrolidin-1-yl]pyridine-3-carboxamide]	< 3 µM
CC1CN(c2ncc(-c3ccc(N(C)C)cc3)cc2C(=O)NS(=O)(=O)c2cccc(N)n2)C(C)(C)C1 (centres unmarked) [Compound 2288, N-[(6-amino-2-pyridyl)sulfonyl]-5-(4-dimethylaminophenyl)-2-(2,2,4-trimethylpyrrolidin-1-yl)pyridine-3-carboxamide]	< 3 µM
CC(C)COc1cc(F)cc(-c2ccc(C(=O)NS(=O)(=O)c3cccc(N)n3)c(N(C)CC3CCCCC3)n2)c1 [Compound 2289, N-[(6-amino-2-pyridyl)sulfonyl]-2-[cyclohexylmethyl(methyl)amino]-6-(3-fluoro-5-isobutoxy-phenyl)pyridine-3-carboxamide]	< 3 µM
CC(C)n1cc(-c2ccc(C(=O)NS(=O)(=O)c3cccnc3N)c(N3C[C@@H](C)CC3(C)C)n2)cn1 [Compound 2290, N-[(2-amino-3-pyridyl)sulfonyl]-6-(1-isopropylpyrazol-4-yl)-2-[(4S)-2,2,4-trimethylpyrrolidin-1-yl]pyridine-3-carboxamide]	3 to 10 µM
C[C@@H]1CN(c2nc(-c3cccc(F)c3F)ccc2C(=O)NS(=O)(=O)c2cccnc2N)C(C)(C)C1 [Compound 2291, N-[(2-amino-3-pyridyl)sulfonyl]-6-(2,3-difluorophenyl)-2-[(4S)-2,2,4-trimethylpyrrolidin-1-yl]pyridine-3-carboxamide]	< 3 µM
CC1CN(c2ncccc2C(=O)NS(=O)(=O)c2cccc(Nc3ccc(C(F)(F)F)cc3)n2)C(C)(C)C1 (centres unmarked) [Compound 2292, N—[[6-[4-(trifluoromethyl)anilino]-2-pyridyl]sulfonyl]-2-(2,2,4-trimethylpyrrolidin-1-yl)pyridine-3-carboxamide]	< 3 µM
COc1cc(OC)cc(Oc2cccc(S(=O)(=O)NC(=O)c3cccnc3N3CC(C)CC3(C)C)n2)c1 (centres unmarked) [Compound 2293, N—[[6-(3,5-dimethoxyphenoxy)-2-pyridyl]sulfonyl]-2-(2,2,4-trimethylpyrrolidin-1-yl)pyridine-3-carboxamide]	< 3 µM
Cc1cccc(COc2cccc(S(=O)(=O)NC(=O)c3cccnc3N3CC(C)CC3(C)C)n2)n1 (centres unmarked) [Compound 2294, N—[[6-[(6-methyl-2-pyridyl)methoxy]-2-pyridyl]sulfonyl]-2-(2,2,4-trimethylpyrrolidin-1-yl)pyridine-3-carboxamide]	3 to 10 µM
C[C@@H]1CN(c2nc(-c3cc(F)ccc3O)ccc2C(=O)NS(=O)(=O)c2ccc[nH]c2=O)C(C)(C)C1 [Compound 2295, 6-(5-fluoro-2-hydroxy-phenyl)-N-[(2-oxo-1H-pyridin-3-yl)sulfonyl]-2-[(4S)-2,2,4-trimethylpyrrolidin-1-yl]pyridine-3-carboxamide]	3 to 10 µM
C[C@@H]1CN(c2nc(-c3ccc(C(F)(F)F)cc3)ccc2C(=O)NS(=O)(=O)c2cccc(N)n2)C(C)(C)C1 [Compound 2296, N-[(6-amino-2-pyridyl)sulfonyl]-6-[4-(trifluoromethyl)phenyl]-2-[(4S)-2,2,4-trimethylpyrrolidin-1-yl]pyridine-3-carboxamide]	< 3 µM
CC1CN(c2ncccc2C(=O)NS(=O)(=O)c2cccc(N3CCCC(Cc4ccccc4)C3)n2)C(C)(C)C1 (centres unmarked) [Compound 2297, N—[[6-(3-benzyl-1-piperidyl)-2-pyridyl]sulfonyl]-2-(2,2,4-trimethylpyrrolidin-1-yl)pyridine-3-carboxamide]	< 3 µM
CC1CN(c2ncccc2C(=O)NS(=O)(=O)c2cccc(Oc3ccccc3Cl)n2)C(C)(C)C1 (centres unmarked) [Compound 2298, N—[[6-(2-chlorophenoxy)-2-pyridyl]sulfonyl]-2-(2,2,4-trimethylpyrrolidin-1-yl)pyridine-3-carboxamide]	< 3 µM
CC1CN(c2ncccc2C(=O)NS(=O)(=O)c2cccc(OCc3cccc(C#N)c3)n2)C(C)(C)C1 (centres unmarked) [Compound 2299, N—[[6-[(3-cyanophenyl)methoxy]-2-pyridyl]sulfonyl]-2-(2,2,4-trimethylpyrrolidin-1-yl)pyridine-3-carboxamide]	< 3 µM
Cc1cccc(-c2ccc(C(=O)NS(=O)(=O)c3ccc[nH]c3=O)c(N3C[C@@H](C)CC3(C)C)n2)c1O [Compound 2300, 6-(2-hydroxy-3-methyl-phenyl)-N-[(2-oxo-1H-pyridin-3-yl)sulfonyl]-2-[(4S)-2,2,4-trimethylpyrrolidin-1-yl]pyridine-3-carboxamide]	3 to 10 µM
CCOc1cc(C)cc(-c2ccc(C(=O)NS(=O)(=O)c3cc[nH]n3)c(Oc3c(C)cc(C)cc3C)n2)n1 [Compound 2301, 6-(6-ethoxy-4-methyl-2-pyridyl)-N-(1H-pyrazol-3-ylsulfonyl)-2-(2,4,6-trimethylphenoxy)pyridine-3-carboxamide]	< 3 µM
COc1ccc(-c2ccc(C(=O)NS(=O)(=O)c3cccnc3N)c(N3C[C@@H](C)CC3(C)C)n2)c(F)c1F [Compound 2302, N-[(2-amino-3-pyridyl)sulfonyl]-6-(2,3-difluoro-4-methoxy-phenyl)-2-[(4S)-2,2,4-trimethylpyrrolidin-1-yl]pyridine-3-carboxamide]	< 3 µM
CC(C)Cn1ccc(-c2cnc(N3CC(C)CC3(C)C)c(C(=O)NS(=O)(=O)c3cccc(N)n3)c2)n1 (centres unmarked) [Compound 2303, N-[(6-amino-2-pyridyl)sulfonyl]-5-(1-isobutylpyrazol-3-yl)-2-(2,2,4-trimethylpyrrolidin-1-yl)pyridine-3-carboxamide]	3 to 10 µM
CC1CN(c2ncc(-c3ccc(C#N)cc3)cc2C(=O)NS(=O)(=O)c2cccc(N)n2)C(C)(C)C1 (centres unmarked) [Compound 2304, N-[(6-amino-2-pyridyl)sulfonyl]-5-(4-cyanophenyl)-2-(2,2,4-trimethylpyrrolidin-1-yl)pyridine-3-carboxamide]	< 3 µM
CCC(CC)CNc1cccc(S(=O)(=O)NC(=O)c2cccnc2N2CC(C)CC2(C)C)n1 (centres unmarked) [Compound 2305, N—[[6-(2-ethylbutylamino)-2-pyridyl]sulfonyl]-2-(2,2,4-trimethylpyrrolidin-1-yl)pyridine-3-carboxamide]	< 3 µM
Cc1cc(-c2ccc(C(=O)NS(=O)(=O)c3cccc(N)n3)c(N3C[C@@H](C)CC3(C)C)n2)cc(OC(C)C)n1 [Compound 2306, N-[(6-amino-2-pyridyl)sulfonyl]-6-(2-isopropoxy-6-methyl-4-pyridyl)-2-[(4S)-2,2,4-trimethylpyrrolidin-1-yl]pyridine-3-carboxamide]	< 3 µM
CCCCN(C)c1cccc(S(=O)(=O)NC(=O)c2cccnc2N2CC(C)CC2(C)C)n1 (centres unmarked) [Compound 2307, N—[[6-[butyl(methyl)amino]-2-pyridyl]sulfonyl]-2-(2,2,4-trimethylpyrrolidin-1-yl)pyridine-3-carboxamide]	< 3 µM
CC1CN(c2ncccc2C(=O)NS(=O)(=O)c2cccc(OCc3ccco3)n2)C(C)(C)C1 (centres unmarked) [Compound 2308, N—[[6-(2-furylmethoxy)-2-pyridyl]sulfonyl]-2-(2,2,4-trimethylpyrrolidin-1-yl)pyridine-3-carboxamide]	< 3 µM
